# Test results taken from PMC6364417, “Kinase inhibitor library screening identifies synergistic drug combinations effective in sensitive and resistant melanoma cells” (Journal of Experimental & Clinical Cancer Research : CR, 2019).
# Experiments:
# Assay in all cases: Kinase inhibitor library screening, PrestoBlue cell viability, 1 or 10 μM, 72 h
# 501Mel cells (parental) = conditions: 72 h
# Procedure: (§1) After 72 h of treatment, cell viability was assessed using the PrestoBlue Cell Viability Reagent (ThermoFisher Scientific). Measurements were performed with the CLARIOstar Monochromator microplate reader (BMG Labtech).
# (§2) Kinase inhibitor library screening. […] Each cell line was treated in its sensitive form (parental), and also as 2 resistant derivatives, which were made resistant to either Vemurafenib (XP) or Dabrafenib (GP). Drugs were added at 2 different concentrations, 1 and 10 μM, for 72 h and cell viability was assessed using the PrestoBlue Cell Viability assay. Results are depicted as % viability compared to untreated cells. Each cell line was analyzed at least in duplicate. […] (XLSX 95 kb)
# [1] = test system: 501Mel-GP cells (Dabrafenib-resistant); conditions: 72 h
# Procedure: as §1, §2
# [2] = test system: 501Mel-XP cells (Vemurafenib-resistant); conditions: 72 h
# Procedure: as §1, §2
# A375 cells (parental) = test system: A375 cells (parental)
# Procedure: as §1, §2
# [3] = test system: A375-GP cells (Dabrafenib-resistant)
# Procedure: as §1, §2
# [4] = test system: A375-XP cells (Vemurafenib-resistant)
# Procedure: as §1, §2
# IGR37 cells (parental) = test system: IGR37 cells (parental)
# Procedure: as §1, §2
# [5] = test system: IGR37-GP cells (Dabrafenib-resistant)
# Procedure: as §1, §2
# [6] = test system: IGR37-XP cells (Vemurafenib-resistant)
# Procedure: as §1, §2
smiles,measurement,setting,value
Clc1ccc(C2(c3ccc(-c4cn[nH]c4)cc3)CCNCC2)cc1 [AT7867],cell viability (kinase inhibitor library screening),"501Mel cells (parental); 501Mel Parental, 1μΜ",93.0%
same,cell viability (kinase inhibitor library screening),"501Mel cells (parental); 501Mel Parental, 10μΜ",5.4%
same,cell viability (kinase inhibitor library screening),"[1]; 501Mel GP, 1μΜ",93.8%
same,cell viability (kinase inhibitor library screening),"[1]; 501Mel GP, 10μΜ",20.5%
same,cell viability (kinase inhibitor library screening),"[2]; 501Mel XP, 1μΜ",81.2%
same,cell viability (kinase inhibitor library screening),"[2]; 501Mel XP, 10μΜ",0.172%
same,cell viability (kinase inhibitor library screening),"A375 cells (parental); A375 Parental, 10μΜ, 72 h",58.0%
same,cell viability (kinase inhibitor library screening),"A375 cells (parental); A375 Parental, 1μΜ, 72 h",97.2%
same,cell viability (kinase inhibitor library screening),"[3]; A375 GP, 1μΜ, 72 h",82.8%
same,cell viability (kinase inhibitor library screening),"[3]; A375 GP, 10μΜ, 72 h",43.6%
same,cell viability (kinase inhibitor library screening),"[4]; A375 XP, 1μΜ, 72 h",99.3%
same,cell viability (kinase inhibitor library screening),"[4]; A375 XP, 10μΜ, 72 h",63.1%
same,cell viability (kinase inhibitor library screening),"IGR37 cells (parental); IGR37 Parental, 1μΜ, 72 h",98.1%
same,cell viability (kinase inhibitor library screening),"IGR37 cells (parental); IGR37 Parental, 10μΜ, 72 h",84.9%
same,cell viability (kinase inhibitor library screening),"[5]; IGR37 GP, 1μΜ, 72 h",89.7%
same,cell viability (kinase inhibitor library screening),"[5]; IGR37 GP, 10μΜ, 72 h",78.9%
same,cell viability (kinase inhibitor library screening),"[6]; IGR37 XP, 1μΜ, 72 h",105.4%
same,cell viability (kinase inhibitor library screening),"[6]; IGR37 XP, 10μΜ, 72 h",42.3%
O=C(Nc1c[nH]nc1-c1nc2ccc(CN3CCOCC3)cc2[nH]1)NC1CC1 [AT9283],cell viability (kinase inhibitor library screening),"501Mel cells (parental); 501Mel Parental, 1μΜ",67.5%
same,cell viability (kinase inhibitor library screening),"501Mel cells (parental); 501Mel Parental, 10μΜ",2.0%
same,cell viability (kinase inhibitor library screening),"[1]; 501Mel GP, 1μΜ",72.2%
same,cell viability (kinase inhibitor library screening),"[1]; 501Mel GP, 10μΜ",0.469%
same,cell viability (kinase inhibitor library screening),"[2]; 501Mel XP, 1μΜ",63.4%
same,cell viability (kinase inhibitor library screening),"[2]; 501Mel XP, 10μΜ",0.184%
same,cell viability (kinase inhibitor library screening),"A375 cells (parental); A375 Parental, 10μΜ, 72 h",6.2%
same,cell viability (kinase inhibitor library screening),"A375 cells (parental); A375 Parental, 1μΜ, 72 h",27.1%
same,cell viability (kinase inhibitor library screening),"[3]; A375 GP, 1μΜ, 72 h",32.2%
same,cell viability (kinase inhibitor library screening),"[3]; A375 GP, 10μΜ, 72 h",3.3%
same,cell viability (kinase inhibitor library screening),"[4]; A375 XP, 1μΜ, 72 h",38.4%
same,cell viability (kinase inhibitor library screening),"[4]; A375 XP, 10μΜ, 72 h",9.8%
same,cell viability (kinase inhibitor library screening),"IGR37 cells (parental); IGR37 Parental, 1μΜ, 72 h",90.9%
same,cell viability (kinase inhibitor library screening),"IGR37 cells (parental); IGR37 Parental, 10μΜ, 72 h",1.1%
same,cell viability (kinase inhibitor library screening),"[5]; IGR37 GP, 1μΜ, 72 h",97.8%
same,cell viability (kinase inhibitor library screening),"[5]; IGR37 GP, 10μΜ, 72 h",3.7%
same,cell viability (kinase inhibitor library screening),"[6]; IGR37 XP, 1μΜ, 72 h",82.7%
same,cell viability (kinase inhibitor library screening),"[6]; IGR37 XP, 10μΜ, 72 h",1.5%
Cc1ccc(NC(=O)c2cccc(C(C)(C)C#N)c2)cc1Nc1ccc2ncn(C)c(=O)c2c1 [AZ628],"Cell viability in kinase inhibitor library screening, 501Mel Parental, 1μΜ","501Mel cells (parental); 501Mel Parental, 1μΜ, in %",59.7
same,"Cell viability in kinase inhibitor library screening, 501Mel Parental, 10μΜ","501Mel cells (parental); 501Mel Parental, 10μΜ, in %",64.1
same,"Cell viability in kinase inhibitor library screening, 501Mel GP, 10μΜ","[1]; 501Mel GP, 10μΜ, in %",83.3
same,"Cell viability in kinase inhibitor library screening, 501Mel XP, 1μΜ","[2]; 501Mel XP, 1μΜ, in %",116.3
same,"Cell viability in kinase inhibitor library screening, 501Mel XP, 10μΜ","[2]; 501Mel XP, 10μΜ, in %",79.0
same,"Cell viability in kinase inhibitor library screening, A375 Parental, 10μΜ","A375 cells (parental); A375 Parental, 10μΜ, 72 h",23.0
same,"Cell viability in kinase inhibitor library screening, A375 Parental, 1μΜ","A375 cells (parental); A375 Parental, 1μΜ, 72 h",26.2
same,"Cell viability in kinase inhibitor library screening, A375 GP, 1μΜ","[3]; A375 GP, 1μΜ, 72 h",19.6
same,"Cell viability in kinase inhibitor library screening, A375 GP, 10μΜ","[3]; A375 GP, 10μΜ, 72 h",21.0
same,"Cell viability in kinase inhibitor library screening, A375 XP, 1μΜ","[4]; A375 XP, 1μΜ, 72 h",20.4
same,"Cell viability in kinase inhibitor library screening, A375 XP, 10μΜ","[4]; A375 XP, 10μΜ, 72 h",13.2
same,"Cell viability in kinase inhibitor library screening, IGR37 Parental, 1μΜ","IGR37 cells (parental); IGR37 Parental, 1μΜ, 72 h, in %",45.5
same,"Cell viability in kinase inhibitor library screening, IGR37 Parental, 10μΜ","IGR37 cells (parental); IGR37 Parental, 10μΜ, 72 h, in %",41.8
same,"Cell viability in kinase inhibitor library screening, IGR37 GP, 10μΜ","[5]; IGR37 GP, 10μΜ, 72 h",55.7%
same,"Cell viability in kinase inhibitor library screening, IGR37 GP, 1μΜ","[5]; IGR37 GP, 1μΜ, 72 h, in %",78.8
same,"Cell viability in kinase inhibitor library screening, IGR37 XP, 10μΜ","[6]; IGR37 XP, 10μΜ, 72 h",15.2%
same,"Cell viability in kinase inhibitor library screening, IGR37 XP, 1μΜ","[6]; IGR37 XP, 1μΜ, 72 h, in %",60.5
Cc1cc(Nc2nc(N[C@@H](C)c3ccc(F)cc3)c(C#N)cc2F)[nH]n1 [AZ 960],viability at 1 µM,"501Mel cells (parental); Homo sapiens, read-out: cell viability, 501Mel Parental, 1μΜ",49.1%
same,viability at 10 µM,"501Mel cells (parental); Homo sapiens, read-out: cell viability, 501Mel Parental, 10μΜ",65.1%
same,viability at 1 µM,"[1]; Homo sapiens, read-out: cell viability, 501Mel GP, 1μΜ",34.2%
same,viability at 10 µM,"[1]; Homo sapiens, read-out: cell viability, 501Mel GP, 10μΜ",66.8%
same,viability at 1 µM,"[2]; Homo sapiens, read-out: cell viability, 501Mel XP, 1μΜ",39.4%
same,viability at 10 µM,"[2]; Homo sapiens, read-out: cell viability, 501Mel XP, 10μΜ",60.4%
same,viability at 1 µM,"A375 cells (parental); Homo sapiens, A-375, 72 h, read-out: cell viability, A375 Parental, 1μΜ",48.9%
same,viability at 10 µM,"A375 cells (parental); Homo sapiens, A-375, 72 h, read-out: cell viability, A375 Parental, 10μΜ",40%
same,viability at 1 µM,"[3]; Homo sapiens, A-375, 72 h, read-out: cell viability, A375 GP, 1μΜ",44%
same,viability at 10 µM,"[3]; Homo sapiens, A-375, 72 h, read-out: cell viability, A375 GP, 10μΜ",37.8%
same,viability at 1 µM,"[4]; Homo sapiens, A-375, 72 h, read-out: cell viability, A375 XP, 1μΜ",61.3%
same,viability at 10 µM,"[4]; Homo sapiens, A-375, 72 h, read-out: cell viability, A375 XP, 10μΜ",46.1%
same,viability at 1 µM,"IGR37 cells (parental); Homo sapiens, IGR-37, 72 h, read-out: cell viability, IGR37 Parental, 1μΜ",83.9%
same,viability at 10 µM,"IGR37 cells (parental); Homo sapiens, IGR-37, 72 h, read-out: cell viability, IGR37 Parental, 10μΜ",90.7%
same,viability at 1 µM,"[5]; Homo sapiens, IGR-37, 72 h, read-out: cell viability, IGR37 GP, 1μΜ",87.2%
same,viability at 10 µM,"[5]; Homo sapiens, IGR-37, 72 h, read-out: cell viability, IGR37 GP, 10μΜ",73.9%
same,viability at 1 µM,"[6]; Homo sapiens, IGR-37, 72 h, read-out: cell viability, IGR37 XP, 1μΜ",81.1%
same,viability at 10 µM,"[6]; Homo sapiens, IGR-37, 72 h, read-out: cell viability, IGR37 XP, 10μΜ",39.7%
